Results as given in patent publication US20190252042A1, “INDENTIFICATION AND ANTIBIOTIC CHARACTERIZATION OF PATHOGENS IN METAGENOMIC SAMPLE” (BIOMÉRIEUX, priority 2016, published 2019).

Experiments:
E aerogenes = assay: Antibiotic Susceptibility Testing (AST) profile by classical microbiology, BAL sample 1; assay type: cell-based; conditions: positive BAL metagenomic sample 1, pathogen E aerogenes
Description: Three validation studies of the metagenomic analysis according to the invention have been done. The first validation study relies on in silico simulated metagenomes (validation study 1), the second validation study is a set of 3 positive miniBAL metagenomic samples for which only the culture identification is available (validation study 2), and the third validation study is a set 2 positive BAL metagenomic samples with identification and AST profiles available (validation study 3). For all the evaluation, Kraken is used for taxonomic binning and ARD binning (steps 22, 24) and IDBA-UD is used for assembly (step 28).
In Table 3, one notes that both pipelines give very similar results and results coherent with classical microbiology, at least for identification results. Both pipelines give similar results, probably because the ARD retrieved are present in the reference sequences of the 2 pathogens, ie. AmpC must be present in the reference sequences of E. aerogenes, and ANT(9)-1A in the reference sequences of S aureus.

S aureus = assay: Antibiotic Susceptibility Testing (AST) profile by classical microbiology, BAL sample 2; assay type: cell-based; conditions: positive BAL metagenomic sample 2, pathogen S aureus

Row | Compound | AST profile (E aerogenes) | AST profile (S aureus)
1 | CO/N=C(\C(=O)N[C@@H]1C(=O)N2C(C(=O)O)=C(COC(N)=O)CS[C@H]12)c1ccco1 [cefuroxime] | intermediate resistance: cefuroxime | –
2 | peniciline | – | resistance: peniciline, clindamycine
3 | CC1(C)S[C@@H]2[C@H](NC(=O)[C@H](N)c3ccc(O)cc3)C(=O)N2[C@H]1C(=O)O [amoxiciline] | resistance: amoxiciline, clavunalate | –
4 | O=C(O)[C@H]1/C(=C/CO)O[C@@H]2CC(=O)N21 [clavunalate] | resistance: amoxiciline, clavunalate | –
